The values that follow come from the METLIN SMRT retention time set (Domingo-Almenara et al. 2019).

This data set can be described thus: gradient 5% acetonitrile 3 min, to 50% in 2 min, to 85% in 15 min, held 3 min, 100 µL/min. The following applies: column: Zorbax Extend-C18 2.1 x 50 mm; eluents: water / acetonitrile, 0.1% formic acid. Put shortly:
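Retention time was recorded from adduct peaks, which were picked computationally and each inspected manually. Pure standards ran in mixtures of ~100 molecules on HPLC coupled to a quadrupole time-of-flight mass spectrometer, in positive and negative ionization mode, through a Zorbax Extend-C18 column (2.1 × 50 mm, 1.8 μm) at 100 μL/min. Eluents were water and acetonitrile, each with 0.1% formic acid.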
For `Cc1ccccc1CNC(=O)C(=O)NCC(c1ccc2c(c1)OCO2)N1CCOCC1` (stereo not given), the RP-LC retention time was 668 s.

As to `O=C(CCS(=O)(=O)c1ccccc1)Nc1ccc(-c2ccn[nH]2)cc1`, the RP-LC retention time was 648 s.

With `CC(C)CN1CCN(C(=O)c2cn(-c3cc(N4CCC(C)CC4)ncn3)cn2)CC1`, the RP-LC retention time was determined as 663 s.

The compound `Cc1ccc(N2CC(C(=O)Nc3ccc4c(c3)C(=O)N3CCCCC3CCO4)CC2=O)cc1` (stereo not given) yielded an RP-LC retention time of 762 s.

In turn, `COc1ccc(CCC(=O)NCC2(c3cccs3)CCCC2)cc1` displayed an RP-LC retention time of 947 s.

In turn, `CCOC(=O)CNC(=O)CN(C(=O)N1CCN(C)CC1)S(=O)(=O)c1ccc(C)cc1` showed an RP-LC retention time of 556 s.

`CCN(CC)C(=O)c1ccc2c(c1)N(CC(=O)NC1CCCCC1)C(=O)CS2` registered an RP-LC retention time of 761 s.

On to `CCN1CCN(S(=O)(=O)c2cccc(-c3nc(-c4ccccc4)no3)c2)CC1`, for which the RP-LC retention time turned out to be 722 s.

Compound `COc1cc(NS(=O)(=O)c2ccc(-c3c(C)noc3C)cc2)cc(OC)c1OC` had an RP-LC retention time of 856 s.

Compound `Cc1ccc(NS(=O)(=O)c2cc3n(c2)CCCN(C)C3=O)c(F)c1` yielded an RP-LC retention time of 684 s.

Compound `CN1CCCc2cc(C(CNC(=O)C(=O)NCCN3CCOCC3)N3CCCCC3)ccc21` (stereo not given) yielded an RP-LC retention time of 558 s.

For `COc1ccccc1-c1nnc(-c2cc(S(=O)(=O)N3CCOCC3)ccc2F)o1`, the RP-LC retention time was determined as 828 s.

In the case of `CC1CCN(c2nc(NCCN3CCOCC3)nc(N3CC4CC(C3)c3cccc(=O)n3C4)n2)CC1` (stereo not given), the RP-LC retention time stood at 555 s.

Consider `COc1ccc(OCc2ccc(C(=O)Nc3ccc4c(c3)OCO4)o2)cc1`, for which the RP-LC retention time was 879 s.

`COC(=O)c1cccc(NC(=O)C2CC(=O)N(c3ccccc3)C2)c1` (stereo not given) showed an RP-LC retention time of 725 s.

`Cc1nnc([C@@H]2CC(F)(F)CN2C(=O)c2ccc3ccccc3n2)o1`: the RP-LC retention time amounted to 756 s.

In the case of `O=c1c(=O)n(-c2ccccc2)ccn1Cc1nc(-c2ccc(Br)cc2)no1`, the RP-LC retention time turned out to be 901 s.

`CCOc1ccccc1-n1c(C(C)N2CCN(C(=O)COc3ccc(Cl)cc3)CC2)nc2ccccc2c1=O` (stereo not given) came in with an RP-LC retention time of 802 s.

For `CCCNC(=O)CC1CCN(C(=O)c2[nH]c(C)c(C(=O)OC)c2C)CC1`, the RP-LC retention time was determined as 657 s.

Consider `CSc1ncc2ncn(C3OC(CO)C(O)C3O)c2n1` (stereo not given), for which the RP-LC retention time was found to be 623 s.

With `Cc1oc(-c2ccc(Cl)cc2)nc1COc1cc(C)c2c(C)nn(C)c2n1`, the RP-LC retention time amounted to 1280 s.

Turning to `O=C(NCc1cc(F)ccc1F)C1CCCN(c2cnc3nccnc3c2)C1` (stereo not given), the RP-LC retention time is 715 s.

The compound `Cc1ccc(C)c(NC(=O)c2cc3c(=O)n(CC(C)C)ccc3n2C)c1` registered an RP-LC retention time of 884 s.

With `CCc1cccc(NC(=O)c2cn(C)nc2S(=O)(=O)N2CCSCC2)c1`, the RP-LC retention time was 1030 s.

`Cc1noc(Cc2nnc(-c3cccc(F)c3)o2)n1` returned an RP-LC retention time of 730 s.

As for `CN1CCCN(C(=O)c2ccc(-c3ccsc3)nc2)CC1`, the RP-LC retention time amounted to 586 s.

As for `COc1ccc(NC(=O)N2CC=C(c3cn(C)c4ncccc34)CC2)cc1OC`, the RP-LC retention time was determined as 714 s.

Consider `CCn1c(=O)c(C(=O)NCc2ccc(OC)cc2)nc2cccnc21`, for which the RP-LC retention time turned out to be 720 s.

The compound `O=C(NCc1nc(-c2ccc(-c3csc(C4CC4)n3)cc2)no1)c1ccccc1` came in with an RP-LC retention time of 1030 s.

Consider `Cc1ccc(Nc2nc(N3CCN(CCO)CC3)nc3c2C(=O)CCC3)cc1`, for which the RP-LC retention time came to 656 s.

On to `COc1ccc2c(C)c(C(=O)Nc3ccc4cn[nH]c4c3)oc2c1`, for which the RP-LC retention time came to 794 s.

`CC(C)(C)CCN1CCCC(COc2ccccc2C(=O)N2CCCC2)C1` (stereo not given) had an RP-LC retention time of 668 s.

In the case of `Cc1sc2cc(C(=O)NC3CC3)[nH]c2c1CN1CCCCC1`, the RP-LC retention time amounted to 596 s.

With `Cn1c(=O)c2c(ncn2CC(=O)N2CCC(c3nc(C4CCOCC4)no3)CC2)n(C)c1=O`, the RP-LC retention time was found to be 611 s.

In turn, `O=C(Cn1cccc1-c1nc(-c2ccc3c(c2)OCO3)no1)NC1CCCCC1` came in with an RP-LC retention time of 1030 s.

The compound `CCN1c2ccccc2C(=O)NC12CCN(C(=O)c1cc(OC)c(OC)c(OC)c1)CC2` displayed an RP-LC retention time of 714 s.

`O=C(c1ccsc1)N(CCc1cccs1)C1CC1` displayed an RP-LC retention time of 853 s.

Regarding `COCC(=O)N1CCC2(CCC2O)CC1` (stereo not given), the RP-LC retention time was 577 s.

Take `COc1ccc(-c2nc3cccnc3n2C2CCN(C(=O)NC(C)C)C2)cc1` (stereo not given): the RP-LC retention time is 667 s.

For `COc1cccc(CN2C[C@@H](CO)[C@H](c3ccccn3)C2)c1OC`, the RP-LC retention time came to 592 s.

Regarding `CCn1cc(-c2ccc(C)cc2)cc1C(=O)O`, the RP-LC retention time was determined as 898 s.

Consider `Cc1c(-c2noc(-c3ccc(F)cc3)n2)nnn1-c1ccc(F)cc1`, for which the RP-LC retention time turned out to be 1060 s.

`O=C1[C@H]2CN(Cc3cc(F)c(F)c(F)c3)C[C@H]2C(=O)N1CCc1ccccc1` registered an RP-LC retention time of 982 s.

Turning to `CC(NC(=O)c1cc2n(n1)CCCC2)c1ccc(F)cc1` (stereo not given), the RP-LC retention time is 818 s.

Turning to `CCOC(=O)c1ccc(CN2C(=O)CSC2=O)cc1`, the RP-LC retention time is 786 s.

`COCC1(O)CCOC2(CCN(Cc3cc(C)ccc3C)CC2)C1` (stereo not given) returned an RP-LC retention time of 559 s.

In turn, `CCOc1ccc(NC(=O)CN2C(=O)CCc3cc(Br)ccc32)cc1` yielded an RP-LC retention time of 926 s.

`CCC(=O)N1CCc2cc(N3CC(C(=O)NCc4cccc(C)c4)CC3=O)ccc21` (stereo not given): the RP-LC retention time is 745 s.

Regarding `Cc1cccc(CCNC(=O)C2CCN(S(=O)(=O)N3CCOCC3)CC2)c1`, the RP-LC retention time was 769 s.

As for `O=C(c1cnccn1)N1CCCn2nc(-c3cccs3)cc2C1`, the RP-LC retention time amounted to 689 s.

`CCOC(=O)c1[nH]c(C)c(C(=O)CN(CC2CCCO2)C(=O)c2ccc(F)cc2)c1C` (stereo not given) showed an RP-LC retention time of 800 s.

As to `CN(C)c1ccc(C(=O)NC2CCN(c3cc(-c4ccccc4)[nH]n3)C2)cc1` (stereo not given), the RP-LC retention time was 705 s.

Consider `O=C(CCc1nc2ccccc2s1)NC1CCN(C(=O)N2C[C@H]3C[C@H](C2)[C@H]2CCCC(=O)N2C3)CC1`, for which the RP-LC retention time worked out at 661 s.

For `Cc1ccn2c(=O)c(C(=O)Nc3nc(C)cs3)cnc2c1`, the RP-LC retention time came out at 673 s.

Compound `CCCS(=O)(=O)c1nc2ccc(NS(=O)(=O)c3ccc(OC)c(OC)c3)cc2s1` gave an RP-LC retention time of 853 s.

In the case of `CC(C)C(=O)NCc1csc(C2CCCN(C(=O)CC3CCCCC3)C2)n1` (stereo not given), the RP-LC retention time stood at 816 s.

For the compound `COc1ccc(N2CCN(C(=O)COc3ccc(NC(=O)C4CC4)cn3)CC2)cc1`, the RP-LC retention time worked out at 673 s.

The compound `O=C(C1CCCN1)N1CCC(OCc2nc(-c3ccncc3)no2)CC1` (stereo not given) had an RP-LC retention time of 565 s.

For `Cc1nn(C)c(C)c1CCN(C)C(=O)C1Cn2cccc2C(=O)N1CC(C)C` (stereo not given), the RP-LC retention time came out at 642 s.

Compound `C=CCn1c(=O)c2ccc(C(=O)NCC(C)C)cc2n2c(=O)n(CC(N)=O)nc12` gave an RP-LC retention time of 643 s.

Compound `C=CCn1c(=O)c2ccccc2n(Cc2nc(-c3ccc(C)c(C)c3)no2)c1=O` yielded an RP-LC retention time of 1140 s.

Take `Cn1cccc1C(=O)N1CC(Oc2cccc(-c3nc(-c4ccccc4)no3)c2)C1`: the RP-LC retention time amounted to 1220 s.

Regarding `COc1ccc(-c2nnc(-c3ccc(C)c(S(=O)(=O)NC(C)(C)C)c3)o2)cc1OC`, the RP-LC retention time amounted to 941 s.

The compound `O=C1CCN(C(=O)[C@@H]2CCCN2C(=O)C2CCCCC2)CCCCCCN1` gave an RP-LC retention time of 743 s.

The compound `O=C(NCCc1csc(C2CCCN(C(=O)C3CCC3)C2)n1)C1CC1` (stereo not given) came in with an RP-LC retention time of 691 s.

The compound `c1cc(N2CCSCC2)ncc1-c1noc(CN2CCSCC2)n1` showed an RP-LC retention time of 815 s.

As for `Cc1ccc(C)c(C(=O)NCCc2cn(CC(C)C)c3ncccc23)c1`, the RP-LC retention time worked out at 892 s.

Regarding `O=S(=O)(c1cccn2cnnc12)N(Cc1ccccc1F)c1ccc(F)c(F)c1`, the RP-LC retention time is 867 s.

In the case of `CC(=O)NCC(=O)N1[C@@H]2CC[C@H]1c1ccc(Nc3ncc(C(F)(F)F)c(NC4CCC4)n3)cc12`, the RP-LC retention time came out at 716 s.

In turn, `Cc1ccccc1-c1noc(Cn2ccnc2C)n1` yielded an RP-LC retention time of 622 s.

As for `C[C@H]1CCC/C=C/C2C[C@H](O)C[C@H]2[C@H](O)/C=C/C(=O)O1` (stereo not given in full), the RP-LC retention time was 732 s.

In turn, `NS(=O)(=O)c1ccc(NC(=O)CN2C(=O)S/C(=C\C=C\c3ccccc3)C2=O)cc1` yielded an RP-LC retention time of 808 s.

Compound `COc1ccc(NC(=O)N2CCCC(C)(C(=O)NCc3ccccc3)C2)c(OC)c1` (stereo not given) showed an RP-LC retention time of 846 s.

For `Cc1ccc(NC(=O)C2C(=O)N(CCO)C3(C)CC2c2ccccc2O3)cc1` (stereo not given), the RP-LC retention time was determined as 727 s.

As to `Cc1cc(C)n(-c2nccnc2SCC(=O)Nc2cccc(Cl)c2C)n1`, the RP-LC retention time was determined as 871 s.

For the compound `Cc1cc(C(=O)N2CCC(c3nc4ccccc4s3)CC2)n(C)n1`, the RP-LC retention time is 715 s.

The compound `CC(C)c1noc(C2CCCN(C(=O)NC(C)(C)C)CCC(=O)NCC2)n1` (stereo not given) registered an RP-LC retention time of 690 s.

Compound `Cc1nn(-c2ccc(-c3ccccc3)nn2)c(C)c1S(=O)(=O)N1CCN(C(C)C)CC1` returned an RP-LC retention time of 683 s.

For `O=C(NCCC1=CCCCC1)C1CCN(Cc2cc3ccccc3n2Cc2ccc(Cl)cc2)CC1`, the RP-LC retention time came to 917 s.

`Cc1cnc(C2CCC2)n1CC1CCN(C(=O)Nc2ccc3c(c2)OCCO3)C1` (stereo not given) returned an RP-LC retention time of 609 s.
